Test results reported in US8598374B2, “GPR120 receptor agonists and uses thereof” (Metabolex, Inc, priority 2008, dated 2013).

Columns and labels:
[1] = tested on: C57BL/6J mice; experiment: Oral glucose tolerance test; format: in vivo; settings: Table 2; 100 mg/kg oral gavage, 3 g/kg oral glucose, mice fasted 6 hours
Method: 8-10 week old male C57BL/6J mice (Harlan) were maintained on regular chow diet from Harlan (2018 Teklad Global). On the day of the experiment mice were fasted for 6 hours, then randomized into groups (n=10-15) to receive the tested GPR120 agonist at doses ranging from 100 mg/kg or the vehicle (1% CMC, 2% TWEEN 80). Compounds were delivered orally via gavage at 10 mL/kg. Blood glucose levels were measured by glucometer (Ascensia Elite XL, Bayer) at time −30 minutes before administration of compound. Blood glucose was measured again after 30 minutes (at time 0), and then the mice were dosed orally with 3 g/kg glucose at 10 mL/kg. […]
Glucose levels were plotted against time, and the incremental area under the curve (AUC) of the glucose excursion was determined from time 0 using Graphpad Prism 5.01. Outliers were excluded using Tukey's box plot outlier test, and statistical significance of differences in AUC of compound treatment compared to vehicle was determined by non-parametric Kruskal-Wallis test with Dunn's post test.
Tables 2 and 3 below show the mean percentage inhibition of the glucose excursion for the fifteen animals tested in each group. The compounds were tested at 100 mg/kg and the levels of blood glucose were determined in the presence and absence of the tested compounds. […]

[2] = molecular target: T1, human GPR120 (Homo sapiens, UniProt Q5NUL3); experiment: Intracellular Ca2+ assay (FLIPR Calcium 4, Flexstation) in human GPR120 stable cell line; format: cell-based; settings: % activity at 5 μM compared to the maximal activity of GW9508 at 6.7 μM; HEK293 cells co-expressing Gqi5
T1 construct: Flag (DYKDDDDK) (N); host or cells: HEK293 cells co-expressing Gqi5
T1 sequence (Q5NUL3 1-361): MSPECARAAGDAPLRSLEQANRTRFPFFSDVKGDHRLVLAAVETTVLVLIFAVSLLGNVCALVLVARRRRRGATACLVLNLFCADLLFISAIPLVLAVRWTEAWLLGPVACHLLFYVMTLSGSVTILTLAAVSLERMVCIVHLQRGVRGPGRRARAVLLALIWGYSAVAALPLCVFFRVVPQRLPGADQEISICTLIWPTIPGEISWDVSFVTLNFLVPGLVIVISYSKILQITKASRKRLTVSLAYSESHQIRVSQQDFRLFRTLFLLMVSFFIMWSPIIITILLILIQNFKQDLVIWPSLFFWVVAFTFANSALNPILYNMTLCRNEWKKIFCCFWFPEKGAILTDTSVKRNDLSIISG

[3] = molecular target: T1, human GPR120; experiment: as above; format: cell-based; settings: % activity at 2.5 μM compared to the maximal activity of the compound of Example 25 at 2.5 μM; HEK293 cells co-expressing Gqi5
Outline: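 HEK293 cells co-expressing Gqi5 and stably expressing Flag-tagged human GPR120 were seeded at 70,000 cells per well in poly-D-lysine coated 96 well plates and loaded with FLIPR Calcium 4 dye for 50 minutes at 37° C. On a Flexstation, compound-induced fluorescence (excitation 485 nm, emission 525) was recorded for 90 seconds. Percent activity was expressed against a reference agonist's maximal activity at 2.5 μM, set as 100%.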

Structure (SMILES) | % Activity (Ex. 25 Reference Compound) [3] | also measured
CC(Cc1ccc(OCc2cc(Cl)cc3c2OC(C)(C)C3)c(F)c1)C(=O)O (centres unmarked) [Example 10, 3-(4-((5-chloro-2,2-dimethyl-2,3-dihydrobenzofuran-7-yl)methoxy)-3-fluorophenyl)-2-methylpropanoic acid] | – | % reduction AUC glucose excursion at 100 mg/kg [1]: 58.1%
CC(Cc1ccc(OCc2cccc3c2CC(C)(C)O3)cc1)C(=O)O (centres unmarked) [Example 17, 3-(4-((2,2-dimethyl-2,3-dihydrobenzofuran-4-yl)methoxy)phenyl)-2-methylpropanoic acid] | – | % Activity (GW9508 Reference Compound) [2]: 72.21%
[2H]C([2H])(Oc1ccc(CCC(=O)O)c(CC)c1F)c1cc(F)cc2c1OC(C)(C)C2 [Example 228, 3-(4-(dideuterio(5-fluoro-2,2-dimethyl-2,3-dihydrobenzofuran-7-yl)methoxy)-3-fluoro-2-ethylphenyl)propanoic acid] | 119.11% | –
[2H]C([2H])(Oc1ccc(CC(C)C(=O)O)cc1F)c1cc(F)cc2c1OC(C)(C)C2 (centres unmarked) [Example 230, 3-(4-(dideuterio(5-fluoro-2,2-dimethyl-2,3-dihydrobenzofuran-7-yl)methoxy)-3-fluorophenyl)-2-methylpropanoic acid] | 86.25% | –
[2H]C([2H])(Oc1ccc(CC(C)C(=O)O)cc1C(F)(F)F)c1cc(F)cc2c1OC(C)(C)C2 (centres unmarked) [Example 231, 3-(4-(dideuterio(5-fluoro-2,2-dimethyl-2,3-dihydrobenzofuran-7-yl)methoxy)-3-(trifluoromethyl)phenyl)-2-methylpropanoic acid] | 101.01% | –
[2H]C([2H])(C(=O)O)C([2H])([2H])c1ccc(OCc2cc(Cl)cc3c2OC(C)(C)C3)c(F)c1 [Example 241, 3-(4-((5-chloro-2,2-dimethyl-2,3-dihydrobenzofuran-7-yl)methoxy)-3-fluorophenyl)-2,2,3,3-tetradeuteriopropanoic acid] | 159.62% | –
[2H]C([2H])(C(=O)O)C([2H])([2H])c1ccc(OCc2cc(F)cc3c2OC(C)(C)C3)c(F)c1CC [Example 243, 3-(2-ethyl-3-fluoro-4-((5-fluoro-2,2-dimethyl-2,3-dihydrobenzofuran-7-yl)methoxy)phenyl)-2,2,3,3-tetradeuteriopropanoic acid] | 155.23% | –
CC1(C)Cc2cc(Cl)cc(COc3ccccc3CCC(=O)O)c2O1 [Example 250, 3-(2-((5-chloro-2,2-dimethyl-2,3-dihydrobenzofuran-7-yl)methoxy)phenyl)propanoic acid] | 10.23% | –

Further lines, with some results ahead:

% Activity (Ex. 25 Reference Compound) [3] | Structure (SMILES) | also measured
61.14% | CC(Cc1cccc(OCc2cc(Cl)cc3c2OC(C)(C)C3)c1)C(=O)O (centres unmarked) [Example 251, 3-(3-((5-chloro-2,2-dimethyl-2,3-dihydrobenzofuran-7-yl)methoxy)phenyl)-2-methylpropanoic acid] | –
146.14% | Cc1cc(CCC(=O)O)c(C)c(C)c1OCc1cc(F)cc2c1OC(C)(C)C2 [Example 254, 3-(4-((5-fluoro-2,2-dimethyl-2,3-dihydrobenzofuran-7-yl)methoxy)-2,3,5-trimethylphenyl) propanoic acid] | –
124.62% | CC(C)Oc1ccc(Cl)cc1COc1cc2c(cc1F)C(CC(=O)O)CC2 (centres unmarked) [Example 257, 2-(5-((5-chloro-2-isopropoxybenzyl)oxy)-6-fluoro-2,3-dihydro-1H-inden-1-yl)acetic acid] | –
139.95% | CC(C)Oc1ccc(Cl)cc1COc1ccc2c(c1)CCC2CC(=O)O (centres unmarked) [Example 258, 2-(5-((5-chloro-2-isopropoxybenzyl)oxy)-2,3-dihydro-1H-inden-1-yl)acetic acid] | –
118.5% | CC(C)Oc1ncccc1COc1ccc2c(c1)CCC2CC(=O)O (centres unmarked) [Example 259, 2-(5-((2-isopropoxypyridin-3-yl)methoxy)-2,3-dihydro-1H-inden-1-yl)acetic acid] | –
16.67% | CC(Cc1cc(F)c(OCc2cccc3cn[nH]c23)c(F)c1)C(=O)O (centres unmarked) [Example 260, 3-(4-((1H-indazol-7-yl)methoxy)-3,5-difluorophenyl)-2-methylpropanoic acid] | –
108.78% | Cc1nc2cccc(COc3c(F)cc(CC(C)C(=O)O)cc3F)c2o1 (centres unmarked) [Example 261, 3-(3,5-difluoro-4-((2-methylbenzo[d]oxazol-7-yl)methoxy)phenyl)-2-methylpropanoic acid] | –
137.39% | CC1(C)Cc2cc(F)cc(COc3ccc4c(CC(=O)O)coc4c3)c2O1 [Example 262, 2-(6-((5-fluoro-2,2-dimethyl-2,3-dihydrobenzofuran-7-yl)methoxy)benzofuran-3-yl)acetic acid] | –
5.98% | CC1(C)Cc2cc(F)cc(COc3ccc4c(CC(=O)O)cc(=O)oc4c3)c2O1 [Example 263, 2-(7-((5-fluoro-2,2-dimethyl-2,3-dihydrobenzofuran-7-yl)methoxy)-2-oxo-2H-chromen-4-yl)acetic acid] | –
110.24% | CC(Cc1ccc(OCc2cc(F)cc3c2OC(C)(C)C3)cc1)C(=O)NO (centres unmarked) [Example 264, 3-(4-((5-fluoro-2,2-dimethyl-2,3-dihydrobenzofuran-7-yl)methoxy)phenyl)-N-hydroxy-2-methylpropanamide] | –
42.73% | CC(C)C(CC(=O)O)c1ccc(OCc2cc(Cl)cc3c2OC(C)(C)C3)cc1 (centres unmarked) [Example 266, 3-(4-((5-chloro-2,2-dimethyl-2,3-dihydrobenzofuran-7-yl)methoxy)phenyl)-4-methylpentanoic acid] | –
140.82% | Cc1c(CCC(=O)O)ccc(OCc2cc(Cl)cc3c2CC(C)(C)O3)c1C [Example 267, 3-(4-((6-chloro-2,2-dimethyl-2,3-dihydrobenzofuran-4-yl)methoxy)-2,3-dimethylphenyl)propanoic acid] | –
